In patent US10286022B2, “Medicinal composition of extract of seed of emblica officinalis and method of preparing the same” (priority 2013, dated 2019):

Key:
[1] = system: Triton WR 1339 induced dyslipidemia in Albino rats (Sprague Dawley strain); test: Hypolipidemic activity of enriched amla seed extract, Triton WR 1339 model (Example 28); assay type: in vivo, rat
Method: Fifty two male Albino rats (Sprague Dawley strain) weighing approximately 250-300 gm were selected for the study. The animals were maintained at temperature of 24±2° C., 65% relative humidity and 12 hr light/dark cycle. The rats were acclimatized for two weeks and during this period they had access to standard pellet diet and water ad libitum. After two weeks of acclimatization, all the rats were fasted overnight before injecting Triton WR 1339 (Tyloxapol) and administration of test extracts/standard. The animals were divided into thirteen groups. Following treatment was given to overnight fasted rats: • Group I: Normal control (vehicle only). • Group II: Triton WR 1339 (300 mg/kg, intraperitoneal). • Group III: Triton WR 1339 (300 mg/kg, intraperitoneal) followed by administering sample 1 of Amla seed extract prepared as per example 27 on the same day of triton administration (0.5 mg/kg, per oral). • Group IV: Triton WR 1339 (300 mg/kg, intraperitoneal) followed by Amla seed extract prepared as per example 1 (0.5 mg/kg, per oral). • Group V: Triton WR 1339 (300 mg/kg, intraperitoneal) followed by sample 2 which is a 1:1 combination of amla seed extract (sample 1) prepared as per example 27 and product 1 (Hexane fraction) of amla seed extract prepared as per example 13 on the same day that Triton was administered (0.5 mg/kg, per oral). • Group VI: Triton WR 1339 (300 mg/kg, intraperitoneal) followed by administering product of amla seed extract (product 3) prepared as per example 13 on the same day of triton administration (0.5 mg/kg, per oral). • Group VII: Triton WR 1339 (300 mg/kg, intraperitoneal) followed by product 2 (50% methanol fraction+80% methanol fraction+water fraction) of amla seed extract prepared as per example 13 on the same day that triton was administered (0.5 mg/kg, per oral). • Group VIII: Triton WR 1339 (300 mg/kg, intraperitoneal) followed by product 1 (hexane fraction) of amla seed extract prepared as per example 13 on the same day that triton was administered (0.5 mg/kg, per oral). • Group IX: Triton WR 1339 (300 mg/kg, intraperitoneal) followed by water extract of dried amla seed powder prepared as per example 8 (0.5 mg/kg, per oral). • Group X: Triton WR 1339 (300 mg/kg, intraperitoneal) followed by methanol extract of dried amla seed powder prepared as per example 9 (0.5 mg/kg, per oral). • Group XI: Triton WR 1339 (300 mg/kg, intraperitoneal) followed by water extract of dried amla fruit powder prepared as per example 11 (0.5 mg/kg, per oral). • Group XII: Triton WR 1339 (300 mg/kg, intraperitoneal) followed by methanol extract of dried amla fruit powder prepared as per example 12 (0.5 mg/kg, per oral). • Group XIII: Triton WR 1339 (300 mg/kg, intraperitoneal) followed by atorvastatin administration (10 mg/kg, per oral), on the same day.
The animals were deprived of food for next 24 hours but had free access to water ad libitum. After 24 hours of drug treatment, 2 ml of blood sample was collected from the retro orbital plexus. The blood was allowed to clot and then centrifuged at 3000 rpm for 10 min and the serum was carefully drawn and collected into separate tubes. The serum was analyzed for total cholesterol, triglycerides, high density lipoproteins (HDL), low density lipoproteins (LDL) and very low density lipoproteins (VLDL) levels using auto-analyzer.

[2] = system: Triton WR 1339 induced dyslipidemia in Albino rats (Sprague Dawley strain); test: Hypolipidemic activity compared with other amla extracts, Triton WR 1339 model (Example 20); assay type: in vivo, rat
Method: Forty eight male Albino rats (Sprague Dawley strain) weighing approximate 250-300 gm were selected for the study. The animals were kept in the animal house maintained at temp 24±2° C., 65% relative humidity and 12 hr light/dark cycle. The rats were acclimatized for two weeks and during this period they had access to standard pellet diet and water ad libitum. After two weeks of acclimatization, all the rats were fasted overnight before injecting Triton WR 1339 (Tyloxapol) and administration of test extracts/standard. The animals were divided into eight groups. Following treatment was given to overnight fasted rats: • Group I: Normal control (vehicle only). • Group II: Triton WR 1339 (300 mg/kg, intraperitoneal). • Group III: Triton WR 1339 (300 mg/kg, intraperitoneal) followed by amla seed extract prepared as per example 1 (2.5 mg/kg, per oral). • Group IV: Triton WR 1339 (300 mg/kg, intraperitoneal) followed by amla extract prepared as per example 3 (40 mg/kg, per oral). • Group V: Triton WR 1339 (300 mg/kg, intraperitoneal) followed by amla extract prepared as per example 4 (40 mg/kg, per oral). • Group VI: Triton WR 1339 (300 mg/kg, intraperitoneal) followed by amla extract prepared as per example 5 (40 mg/kg, per oral). • Group VII: Triton WR 1339 (300 mg/kg, intraperitoneal) followed by amla extract prepared as per example 6 (40 mg/kg, per oral). • Group VIII: Triton WR 1339 (300 mg/kg, intraperitoneal) followed by atorvastatin (10 mg/kg, per oral).
The animals were deprived of food for next 24 hours but had free access to water ad libitum. After 24 hour of drug treatment 2 ml blood samples were collected from the retro orbital plexus. The blood was allowed to clot and then centrifuged at 3000 rpm for 10 min and the serum was carefully drawn and collected into separate tubes. The serum was analyzed for total cholesterol, triglycerides, high density lipoproteins (HDL), low density lipoproteins (LDL) and very low density lipoproteins (VLDL) levels using auto-analyzer.

[3] = 24 h after Triton i.p. + 10 mg/kg p.o.

## CC(C)c1c(C(=O)Nc2ccccc2)c(-c2ccccc2)c(-c2ccc(F)cc2)n1CC[C@@H](O)C[C@@H](O)CC(=O)O [Atorvastatin]
[1]; [3]
  HDL After: 35.1 mg/dL
  LDL After: 49.39 mg/dL
  TC After: 124.54 mg/dL
  TG After: 200.25 mg/dL
  VLDL After: 40.06 mg/dL
[1]; baseline, 10 mg/kg p.o. group
  HDL Before: 32.41 mg/dL
  LDL Before: 61.7 mg/dL
  TC Before: 104.21 mg/dL
  TG Before: 50.54 mg/dL
  VLDL Before: 10 mg/dL
[2]; [3]
  HDL After: 33.84 mg/dL
  LDL After: 55.00 mg/dL
  TC After: 132.58 mg/dL
  TG After: 218.66 mg/dL
  VLDL After: 43.73 mg/dL
[2]; baseline, 10 mg/kg p.o. group
  HDL Before: 35.11 mg/dL
  LDL Before: 52.43 mg/dL
  TC Before: 97.33 mg/dL
  TG Before: 48.99 mg/dL
  VLDL Before: 9.79 mg/dL
[2]; other amla extracts 40 mg/kg vs seed extract 2.5 mg/kg, atorvastatin 10 mg/kg p.o.
  effect on cholesterol and triglyceride level: effective in lowering the cholesterol as well as triglyceride levels
